The values below come from patent US9084766B2, “Compounds and compositions for targeting cancer stem cells” (Boston Biomedical, Inc., priority 2010, dated 2015).

Series [1] deals with FaDu human head and neck cancer. In words: Antitumor activity in subcutaneous FaDu xenograft mice. In kind it is in vivo. On the procedure: In the studies shown in FIG. 8, immunosuppressed mice with established subcutaneous FaDu human head and neck cancer were given indicated amount of hand grounded Compound 1 with Crystal Form 1, or vehicle control orally (po). Compound 1 was formulated in […]™. All regimens were administered daily (qd). Tumor sizes were evaluated periodically during treatment.
In the study shown in FIG. 9, immunosuppressed mice with established subcutaneous FaDu human head and neck cancer were given 100 mg/kg of micronized Compound 1 produced with the synthetic process described in FIGS. 5A and 5B (first crop), or vehicle control orally (po). Compound 1 was formulated in […]™. All regimens were administered daily (qd). Tumor sizes were evaluated periodically during treatment. Form 2 has been successfully manufactured by a current good manufacturing practice (cGMP) process and received approval from the FDA and Health Canada to be used in clinical trials.
Form 3 can only be generated from Form 1 using a specially designed slurry process described herein. […] In the study shown in FIG. 10, immunosuppressed mice with established subcutaneous FaDu human head and neck cancer were given 200 mg/kg of Compound 1 with hand grounded Crystal Form 1 or Form 3, or vehicle control orally (po). Compound 1 was formulated in gelucire. All regimens were administered daily (qd). Tumor sizes were evaluated periodically during treatment. This polymorph has been successfully manufactured by a cGMP process and received approval from FDA and Health Canada to be used in clinical trials.
The anti-tumor activity of particles of Compound 1 with different particle size ranges is illustrated in FIG. 15, and the pharmacokinetic data for particles of Compound 1 with different particle size ranges is illustrated in FIGS. 16-18. In the study shown in FIG. 15, immunosuppressed mice with established subcutaneous FaDu human head and neck cancer were given indicated amount of Compound 1 with indicated particle size, or vehicle control orally (po). All regimens were administered daily (qd). Tumor size was evaluated periodically.
In an experiment, a formulation of Compound 1 particles sieved to 160 micron was tested in the model of immunosuppressed mice with established subcutaneous xenograft FaDu human head and neck cancer. The pharmaceutical composition was formulated as 80 mg/ml in 9% Gelucire, 20% Vitamin E TPGS (Table 3). […] All regimens were administered daily (qd).
In an experiment, Compound 1 crystals were milled to a median particle size of about 20 micron. […] All regimens were administered daily (qd).
FaDu human head and neck cancer cells were inoculated subcutaneously into female athymic nude mice (6×10^6 cells/mouse) and allowed to form palpable tumors. When the tumors reached approximately 100 mm^3, the animals were treated orally (po) with Compound 1 at 100 mg/kg or vehicle control daily. Compound 1 was formulated at 10 mg/ml in 20% gelucire. Tumors and bodyweights were measured throughout treatment (FIG. 15).
Daily examinations into the health status of each animal were also conducted. Body weights were checked every three days. Food and water was supplied daily according to the animal husbandry procedures of the facility. Treatment producing>20% lethality and or >20% net body weight loss were considered toxic. Results are expressed as mean tumor volume (mm^3)±SE. P Values<0.05 are considered to be statistically relevant.
Male or female athymic nude mice 4-5 weeks (Charles River Laboratories, Wilmington, Mass.), were acclimated to the animal housing facility for at least 1 week before study initiation. […]

Series [2] in a line: Phase I clinical trial: plasma pharmacokinetics. The settings on record: clinical trials (FIG. 11, FIG. 12). In kind it is in vivo, human. On the procedure: A favorable PK profile with oral bid dosing was also observed. The plasma concentration reached several folds over efficacious concentration (in vitro IC50).
In yet another suitable dosing regimen, Compound 1 is administered with food which delays the Tmax (Table 13).

Another series relates to advanced solid tumors. In words: Phase I clinical trial: tumor response (RECIST 1.1) and progression free survival. Format: in vivo, human. The settings on record: clinical trials. An excerpt:
As of Feb. 7, 2011, 42 cancer patients with various advanced solid tumors who have failed chemotherapies were enrolled in the study.
Of the 42 patients dosed, 24 were evaluable for tumor response as of Feb. 7, 2011; 16 (16/24 evaluable patients) achieved stable disease (8 to 75+ weeks).

Entries after “also recorded” stand apart in the source; their conditions may differ.

With `CC(=O)c1cc2c(o1)C(=O)c1ccccc1C2=O` [Crystal Form 1, 2-acetyl-4H,9H-naphtho[2,3-b]furan-4,9-dione], in series [1] (hand grounded Crystal Form 1 in GELUCIRE, po qd (FIG. 8)), the anti-tumor activity result is “limited anti-tumor activity; also recorded: low anti-tumor activity”. Regarding `CC(=O)c1cc2c(o1)C(=O)c1ccccc1C2=O` [Crystal Form 3, 2-acetyl-4H,9H-naphtho[2,3-b]furan-4,9-dione], the antitumor activities entry in series [1] (200 mg/kg hand grounded, in gelucire, po qd (FIG. 10)) was “potent antitumor activities”. Take `CC(=O)c1cc2c(o1)C(=O)c1ccccc1C2=O` [Crystal Form 2, 2-acetyl-4H,9H-naphtho[2,3-b]furan-4,9-dione]: the anti-tumor activity result in series [1] (100 mg/kg micronized (first crop) in GELUCIRE, po qd (FIG. 9)) was “potent anti-tumor activity”. Further, the “pharmacokinetics in cancer patients” value in series [2] is reported as “desirable pharmacokinetics”. Further, the “anti-tumor activity in cancer patients” value in the series on advanced solid tumors is listed as “strong signs of anti-tumor activity”.
